Here are results for 5 compounds from patent publication US20240041866A1, “PHARMACEUTICAL COMPOSITION” (FUJIFILM TOYAMA CHEMICAL CO., LTD., priority 2020, published 2024).

The conditions of series [1]: cited from earlier work.
Series [2] can be described thus: Test Example 2: Appearance (degree of coloring) of aqueous solution left at 70° C. The settings on record: stabilizing component added to aqueous solution of Compound A. Type of series: physicochemical. The procedure:
To examine the stabilizing effect of a stabilizing component, the degree of coloring was determined. […] Subsequently, the color tone of each filtrate was observed visually.

Turning to `NC(=O)c1nc(F)c[nH]c1=O` [Compound A, 6-fluoro-3-hydroxy-2-pyrazinecarboxamide], the Water solubility result in series [1] was “low water solubility”.
Take `O=C(O)CN(CCO)CCO` [bicine, N,N-bis(2-hydroxyethyl)glycine]: in series [2], the “Results in view of appearance” value is listed as “particularly favorable”.
For the compound `NC(CO)(CO)CO` [trometamol], the “Results in view of appearance” value in series [2] was “particularly favorable”.
Same read-out and setting: for `O=C(O)CNC(CO)(CO)CO` [tricine, N-[tris(hydroxymethyl)methyl]glycine] the value was “particularly favorable”.
`O=C(O)CN(CCN(CC(=O)O)CC(=O)O)CC(=O)O` [EDTA, ethylenediamine tetraacetic acid]: the “Results in view of appearance” value in series [2] is “particularly favorable”.
